Measurements from patent US9056133B2, “Pharmaceutical kit and method for treating cancer” (priority 2012, dated 2015).

Columns and labels:
[1] = Biochemical profile and Ca 19.9 tumoral marker of treated animals at day 40; type: in vivo, athymic mice N:NIH(S)-nu
Protocol: Also, to evaluate efficacy of AV25CDC 5/3, on orthotopic tumors caused by SW1990 cells, E4 expression was evaluated at day 40, where an average of […] viral particles were found in the tumor indicating an active replication. On the other hand, biochemical parameters were evaluated at day 40, determining amylase, total and direct bilirubin, alkaline phosphatase (ALP) and aspartate aminotransferase (AST).
Tumoral marker levels Ca 19.9 were also determined.

[2] = test system: SW1990 pancreatic tumoral cell line; assay: Combined effect of AV25CDC 5/3 and gemcitabine, MTT cell viability; type: cell-based, human; settings: alone or 24 h after virus at MOI 0.1, MTT six days later
Protocol: FIG. 8. In vitro synergic effect of AV25CDC 5/3 and gemcitabine in pancreatic tumoral cell line SW1990. Cells were infected with AV25CDC 5/3, at a MOI of 0.1 and 24 hours later gemcitabine was added at concentrations of 0.01 uM and 0.1 uM. Six days later, cell viability was measured using MTT assay.
Pancreatic tumoral cell lines (SW1990) were plated and infected with AV25CDC 5/3, at a MOI of 0.1 and 24 hours later, gemcitabine was added in concentrations of 0.01 uM and 0.1 uM. Six days later, cell viability was measured using MTT assay. There was no decrease on viability if only AV25CDC 5/3 is used at a MOI of 0.1, as well as no decrease was found adding gemcitabine at 0.01 uM. Nevertheless, the combination of both produced a decrease in cell viability of 20%. Using a higher concentration of gemcitabine, of 0.1 uM, on its own produced a decrease in viability of 20%, but combined with AV25CDC 5/3 at a MOI of 0.1, the viability decrease of 40%, considering the control (FIG. 8).

Structure (SMILES): Nc1ccn([C@@H]2O[C@H](CO)[C@@H](O)C2(F)F)c(=O)n1 [gemcitabine]
- ALP ([1]; average ± SD, day 40): 119.3 ± 25 U/L
- Amylase ([1]; average ± SD, day 40): 1151 ± 386 U/L
- Direct bilirubin ([1]; average ± SD, day 40): 0.14 ± 0.02 mg/dL
- GOT (AST) ([1]; average ± SD, day 40): 280 ± 64 U/L
- GPT (ALT) ([1]; average ± SD, day 40): 47 ± 17 U/L
- Total Bilirubin ([1]; average ± SD, day 40): 0.78 ± 0.05 mg/dL
- Ca 19.9 ([1]; tumoral marker, individual samples, day 40 after injection of virus): 27940 U/ml
- cytotoxicity at 0.1 µM ([2]; Homo sapiens, gemcitabine 0.1 uM, vs control, read-out: decrease in cell viability): 20%
- decrease in cell viability ([2]; gemcitabine 0.01 uM): no decrease
